Measured values reported in ChEMBL document CHEMBL1201862, “PubChem BioAssay data set” (2004).
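Interpolation was linear, between the two tested concentrations surrounding the appropriate level; five concentrations were tested over 48 hours in 96-well plates. GI50 marks 50% less growth.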 Activity calls are given as the source filed them. Rule as the data show it: active = GI50 up to about 1.1 µM and inactive = higher.

Columns and labels:
Test in all cases: inhibition of tumour cell growth, NCI panel, 48 h
MDA-N = tested on: MDA-N
OVCAR-5 = tested on: OVCAR-5
SK-MEL-2 = tested on: SK-MEL-2
RXF 393 = tested on: RXF 393
KM12 = tested on: KM12
HCT-15 = tested on: HCT-15
OVCAR-4 = tested on: OVCAR-4
IGROV-1 = tested on: IGROV-1
NCI-H23 = tested on: NCI-H23
HT-29 = tested on: HT-29
SK-MEL-28 = tested on: SK-MEL-28
SNB-19 = tested on: SNB-19
SW-620 = tested on: SW-620
HCC 2998 = tested on: HCC 2998
SF-268 = tested on: SF-268
HOP-62 = tested on: HOP-62
T47D = tested on: T47D
OVCAR-3 = tested on: OVCAR-3
SNB-75 = tested on: SNB-75
OVCAR-8 = tested on: OVCAR-8

Row | SMILES | GI50 (MDA-N) | GI50 (OVCAR-5) | GI50 (SK-MEL-2) | GI50 (RXF 393) | GI50 (KM12) | GI50 (HCT-15) | GI50 (OVCAR-4) | GI50 (IGROV-1) | GI50 (NCI-H23) | GI50 (HT-29) | GI50 (SK-MEL-28) | GI50 (SNB-19) | GI50 (SW-620) | GI50 (HCC 2998) | GI50 (SF-268) | GI50 (HOP-62) | GI50 (T47D) | GI50 (OVCAR-3) | GI50 (SNB-75) | GI50 (OVCAR-8)
1 | CC1(C)OC(=O)N(c2ccccc2)C12C=Cc1cc([N+](=O)[O-])cc([N+](=O)[O-])c1O2 (stereo not given) | > 100 µM (inactive) | > 100 µM (inactive) | > 100 µM (inactive) | > 100 µM (inactive) | > 100 µM (inactive) | > 100 µM | 92 µM (inactive) | > 100 µM (inactive) | > 100 µM (inactive) | > 100 µM (inactive) | > 100 µM (inactive) | > 100 µM (inactive) | > 100 µM (inactive) | > 100 µM (inactive) | 98.9 µM (inactive) | 97.9 µM (inactive) | > 100 µM (inactive) | 97.7 µM (inactive) | 66.5 µM (inactive) | > 100 µM (inactive)
2 | OCCN(/N=C\c1ccc2ccccc2c1)C1=NCCN1 | 17.2 µM (inactive) | 24.2 µM (inactive) | 20.3 µM (inactive) | 11.4 µM (inactive) | 38.2 µM (inactive) | 30.5 µM | 30.8 µM (inactive) | 35.1 µM (inactive) | 27.7 µM (inactive) | 27.5 µM (inactive) | 19.3 µM (inactive) | 32.4 µM (inactive) | 21.1 µM (inactive) | 16.3 µM (inactive) | 35.1 µM (inactive) | 42.6 µM (inactive) | 29.6 µM (inactive) | 23.2 µM (inactive) | 20.7 µM (inactive) | 48.4 µM (inactive)
3 | C=C(C)[C@H]1CC(=O)[C@@]2(C)C[C@H]3O[C@]3(C)CC/C=C(\C)CC[C@H]12 | 49 µM (inactive) | 86.9 µM (inactive) | 45.1 µM (inactive) | 33.8 µM (inactive) | 16 µM (inactive) | 47.2 µM | 42.1 µM (inactive) | 73.1 µM (inactive) | 34.4 µM (inactive) | 34.1 µM (inactive) | 50.4 µM (inactive) | 70 µM (inactive) | 42.3 µM (inactive) | > 100 µM (inactive) | 77.3 µM (inactive) | 74.1 µM (inactive) | 38.4 µM (inactive) | 29.9 µM (inactive) | 58.3 µM (inactive) | 98.4 µM (inactive)
4 | CCCCSc1nsc(N(C(=O)c2ccccc2)C(=O)c2ccccc2)n1 | 30.9 µM (inactive) | 26.5 µM (inactive) | 26.4 µM (inactive) | 32.3 µM (inactive) | 33.5 µM (inactive) | 30.3 µM | 57.5 µM (inactive) | 41.1 µM (inactive) | 30.1 µM (inactive) | 29.8 µM (inactive) | 40.2 µM (inactive) | 45.5 µM (inactive) | 41.4 µM (inactive) | 25.5 µM (inactive) | 35.8 µM (inactive) | 34 µM (inactive) | 37.9 µM (inactive) | 23.7 µM (inactive) | 25.1 µM (inactive) | 34.8 µM (inactive)
5 | O=S(=O)(c1cnccc1N1CCN(CCO)CC1)N1CCCC1 | > 100 µM (inactive) | > 100 µM (inactive) | > 100 µM (inactive) | > 100 µM (inactive) | > 100 µM (inactive) | > 100 µM | > 100 µM (inactive) | > 100 µM (inactive) | > 100 µM (inactive) | > 100 µM (inactive) | > 100 µM (inactive) | > 100 µM (inactive) | > 100 µM (inactive) | > 100 µM (inactive) | > 100 µM (inactive) | > 100 µM (inactive) | > 100 µM (inactive) | > 100 µM (inactive) | > 100 µM (inactive) | > 100 µM (inactive)
6 | Clc1ccc(-c2cc(-c3cc4cc(Br)ccc4nc3Cl)on2)cc1 | 11.8 µM (inactive) | 1.4 µM (inactive) | 9.71 µM (inactive) | 15.4 µM (inactive) | 15.5 µM (inactive) | 16.2 µM | 16.2 µM (inactive) | 12.9 µM (inactive) | 17.1 µM (inactive) | 17.5 µM (inactive) | 9.62 µM (inactive) | 26.7 µM (inactive) | 10.4 µM (inactive) | 10.3 µM (inactive) | 13.4 µM (inactive) | 6 µM (inactive) | 15 µM (inactive) | 10 µM (inactive) | 25.1 µM (inactive) | 18.7 µM (inactive)
7 | CN(C)CCCNc1ccc2c(=O)n(CCN(C)C)c(=O)n3c4ccccc4c(=O)c1c23 | 0.133 µM (active) | 0.356 µM (active) | 0.798 µM (active) | 0.783 µM (active) | 0.159 µM (active) | 0.0562 µM | 0.224 µM (active) | 0.148 µM (active) | 0.236 µM (active) | 0.0647 µM (active) | 0.628 µM (active) | 0.132 µM (active) | 0.0637 µM (active) | 0.112 µM (active) | 0.603 µM (active) | 0.351 µM (active) | 1.03 µM (active) | 0.34 µM (active) | 1.1 µM (active) | 0.22 µM (active)
